Data on 31 molecules can be found in PubChem BioAssay (NCI).

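All cell lines were grown in 96-well plates and treated with compound for 48 hours. At the GI50, growth is halved. TGI denotes the concentration required for complete inhibition of growth.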 A value given as a limit tells only on which side of the number the result lay.

Holding throughout (test): NCI anticancer screen, dose series, 48 h
The subject of experiment [1] is UACC-62 melanoma.
The test system of experiment [2] is OVCAR-5 ovarian.
In experiment [3] the test system is SF-268 CNS.
Experiment [4] deals with SR leukemia.
Experiment [5] relates to SK-MEL-5 melanoma.
The subject of experiment [6] is SK-MEL-28 melanoma.
The test system of experiment [7] is HCT-116 colon.
Experiment [8] has as its system TK-10 renal.
The test system of experiment [9] is MDA-MB-231 breast.

On to `COc1ccc(-c2cc(C(=O)Nc3cccc(C(F)(F)F)c3)[nH]c(=S)n2)cc1`, for which the TGI in experiment [1], in [2], in experiment [3], in [4], in [5] and in [6] was > 100 µM each time. Also, the TGI in experiment [7] and in experiment [8] was > 100 µM each time.
`Cc1c(/C=C2\CC/C(=C\c3[nH]c(C(=O)OC(C)(C)C)c(C)c3C)C2=O)[nH]c(C(=O)OC(C)(C)C)c1C`: the TGI in [1], in experiment [2], in experiment [3], in experiment [4], in [5] and in [7] was > 100 µM throughout. For the same molecule, the TGI in experiment [8] is > 100 µM.
Consider `C[C@]12CC[C@H](O)CC1=CC[C@@H]1[C@@H]2CC[C@]2(C)C(=O)/C(=C/c3cccc(OCCCn4ccnc4)c3)C[C@@H]12`, for which the GI50 was 13.1 µM in experiment [1]; 18.1 µM in [2]; 21.4 µM in experiment [3]; 20.6 µM in experiment [9]; 13.9 µM in [4]; 11.1 µM in experiment [5]. Also, the GI50 is 22.2 µM in experiment [6], 15 µM in experiment [7] and 27.9 µM in experiment [8]. Besides, the TGI was found to be 30 µM in experiment [1]; 34.8 µM in experiment [2]; 55.6 µM in [3]; 40.4 µM in experiment [9]; 40 µM in experiment [4]; 24.6 µM in [5]. Further, the TGI in [6] was determined as 51.5 µM; in [7], 30.2 µM; in experiment [8] it was 72 µM.
`O=c1/c(=C/c2cccc3ccccc23)sc2nc3ccccc3n12`: the TGI in experiment [1], in experiment [2], in experiment [3], in [5], in experiment [6] and in experiment [7] was > 100 µM in each case. In addition, the TGI in experiment [8] is > 100 µM.
With `COc1cc(OC)cc(N2CCC(c3c(N)nc(N)nc3Cl)CC2)c1`, the TGI in [1] was > 100 µM; in experiment [2] it was > 100 µM; in experiment [3] it was > 100 µM; in experiment [5], 97.7 µM; in experiment [6], > 100 µM; in [8], > 100 µM.
Regarding `COc1nc(OC)c2c(=O)oc(-c3ccccc3)cc2n1`, the TGI in experiment [1], in [2], in experiment [3], in experiment [4], in experiment [5] and in experiment [6] was > 100 µM in each case. Moreover, the TGI in experiment [7] and in experiment [8] was > 100 µM in each case.
Regarding `CS(=O)(=O)C1S(=O)(=O)OCCOS1(=O)=O`, the TGI in experiment [1], in experiment [2], in experiment [3], in experiment [4], in experiment [5] and in experiment [6] was > 100 µM throughout. In addition, the TGI in experiment [7] and in experiment [8] was > 100 µM in each case.
On to `O=c1cc2n(c(=O)[nH]1)C1OC(C(O)C1O)[C@@H]2CCO` (stereo not given in full), for which the TGI in experiment [1], in [2], in [3], in experiment [4], in experiment [5] and in experiment [6] was > 100 µM each time. Moreover, in experiment [8], the TGI is > 100 µM.
For `COC(=O)c1cnc2nc(N3CCOCC3)[nH]n2c1=O`, the TGI in experiment [1], in [2], in experiment [3], in experiment [4], in [5] and in experiment [6] was > 100 µM in each case. In addition, the TGI in experiment [7] and in [8] was > 100 µM in each case.
With `CCc1nc2c(O)ccc(O)c2nc1C`, the TGI in experiment [1] was 27.5 µM; in experiment [2] it was 33.5 µM; in experiment [3], 34.2 µM; in experiment [4] it was > 100 µM; in experiment [5], 31.2 µM; in [6] it was 34.4 µM. For the same molecule, the TGI in experiment [7] is 20.9 µM; in [8], 37.1 µM.
Turning to `CCOC(C)OCC#CCCBr` (stereo not given), the TGI in experiment [1], in [2], in experiment [3], in [5], in [7] and in experiment [8] was > 100 µM each time.
Regarding `CC(C)(C)c1nc2c(o1)C(=Nc1ccccc1)c1ccccc1C2=O`, the TGI in experiment [1] is 5.08 µM; in [2], 29.4 µM; in experiment [3], 21 µM; in [4] it was > 100 µM; in experiment [5], 2.97 µM; in experiment [6], 10.8 µM. For the same molecule, the TGI in [7] was 12.8 µM; in experiment [8] it was 59.6 µM.
In the case of `N#C/C(=C\c1ccc(CP(=O)(O)O)cc1)C(N)=O`, the TGI in experiment [1], in experiment [2], in experiment [3], in experiment [5], in experiment [6] and in experiment [7] was > 100 µM each time. Moreover, the TGI in experiment [8] was > 100 µM.
`CC(=O)[CH-]C(=O)c1ccccc1.CC(=O)[CH-]C(=O)c1ccccc1.[Nd+3].[OH-].[OH3+]`: the GI50 in [1], in [3], in [5], in experiment [6], in experiment [7] and in experiment [8] was > 100 µM each time. In addition, the TGI in experiment [1], in experiment [3], in experiment [5], in [6], in experiment [7] and in experiment [8] was > 100 µM in each case.
`OCC(O)CC[CH2][Sn]([c]1ccccc1)([c]1ccccc1)[c]1ccccc1` (stereo not given): the GI50 was 16.1 µM in [1]; 14.9 µM in [2]; 49.3 µM in [4]; 15.3 µM in experiment [5]; 10.8 µM in experiment [7]; 17 µM in experiment [8]. For the same molecule, the TGI in experiment [1] is 29.8 µM; in [2], 28.3 µM; in experiment [4], > 100 µM; in [5], 29.1 µM; in [7], 22.7 µM; in experiment [8], 31.2 µM.
On to `CN(C)CCNC(=O)c1ccc2ccc3cccnc3c2n1`, for which the TGI in [1] was 30.4 µM; in [2], 47.8 µM; in experiment [3], 54.5 µM; in experiment [4], 30.7 µM; in [5], 28.3 µM; in experiment [6], > 61.6 µM. Further, the TGI is 27.2 µM in [7] and 62.8 µM in experiment [8].
`O=C(Cc1ccccc1)Oc1ccc2c(-c3ccccc3)c(C(=O)Nc3ccc(Cl)cc3)c(=O)oc2c1`: the TGI in [1], in [2], in experiment [3], in experiment [4], in experiment [5] and in [6] was > 100 µM each time. Also, the TGI in experiment [7] and in experiment [8] was > 100 µM in each case.
As for `CC(NC(=O)c1ccccc1)C(=O)N(Cc1ccccc1)Cc1ccccc1` (stereo not given), the TGI in [1] was 30.7 µM; in experiment [2] it was > 100 µM; in experiment [3] it was > 100 µM; in experiment [4] it was 64.6 µM; in experiment [5], 44.9 µM; in [6], 97.6 µM. The TGI was 66 µM in experiment [7] and > 100 µM in [8].
As to `O=C1CCC2(c3ccc(F)cc3)Nc3ccccc3N12` (stereo not given), the TGI in experiment [1], in [2], in experiment [3], in experiment [5], in experiment [6] and in experiment [8] was > 100 µM throughout.
`O=CC1=CCCC2(C1)OCCO2`: the TGI in experiment [1], in experiment [3], in [5], in [6], in experiment [7] and in experiment [8] was > 100 µM throughout.
Consider `CC(=O)O[C@]1(C(C)=O)CC[C@H]2[C@@H]3C[C@H](C)C4=CC(=O)C=C[C@]4(C)[C@@]3(F)[C@@H](O)C[C@@]21C`, for which the TGI in experiment [1], in experiment [2], in experiment [3], in experiment [4], in experiment [5] and in experiment [6] was > 100 µM each time. Also, the TGI in experiment [7] and in experiment [8] was > 100 µM throughout.
Turning to `COC(=O)N1[C@H]2Cc3c(OC)c(C)c(OC)c(OC)c3[C@@H]1/C(=C\c1cc(OC)c(OC)c(C)c1OC)N(Cc1ccccc1)C2=O`, the TGI is > 100 µM in experiment [1]; > 100 µM in [2]; > 100 µM in experiment [3]; 94.1 µM in experiment [4]; 53.8 µM in experiment [5]; > 100 µM in experiment [6]. For the same molecule, the TGI in experiment [7] and in [8] was > 100 µM in each case.
`O=[N+]([O-])c1ccccc1S(=O)c1ccccc1` (stereo not given): the TGI in experiment [1], in experiment [2], in experiment [3], in experiment [4], in [5] and in [6] was > 100 µM throughout. In addition, the TGI in experiment [7] and in experiment [8] was > 100 µM each time.
Regarding `[Cu+2].[Cu+2].[O-]c1ccccc1C=Nc1ccccc1[O-].[O-]c1ccccc1C=Nc1ccccc1[O-]`, the GI50 was 3.55 µM in experiment [1]; 17.7 µM in experiment [2]; 11.8 µM in experiment [3]; 3.3 µM in experiment [5]; 13.3 µM in experiment [6]; 2.47 µM in experiment [7]. The GI50 in experiment [8] was 18.3 µM. For the same molecule, the TGI in experiment [1] worked out at 14 µM; in experiment [2] it was 32.6 µM; in experiment [3], 24.2 µM; in experiment [5] it was 12 µM; in [6] it was 26 µM; in experiment [7], 6.55 µM. In [8], the TGI was determined as 32.3 µM.
For `O=C(O)CSc1n[nH]c(/C=C/c2ccccc2)n1`, the TGI in experiment [1], in experiment [2], in experiment [3], in experiment [4], in [5] and in experiment [6] was > 100 µM in each case. Moreover, the TGI in [7] and in [8] was > 100 µM each time.
Turning to `COc1ccc(CNc2cc(OC)cc(OC)c2)cc1`, the TGI in [1], in experiment [2], in experiment [3], in experiment [5], in experiment [6] and in experiment [7] was > 100 µM each time. In addition, the TGI in experiment [8] is > 100 µM. The GI50 in experiment [2] is > 78.1 µM.
Regarding `Nc1nc2ncn(CCO)c2c(=O)[nH]1`, the TGI in [1], in [2], in experiment [3], in experiment [4], in [6] and in experiment [7] was > 100 µM throughout. Besides, in experiment [8], the TGI was > 100 µM.
In the case of `CCCCN(CC)C(=O)C(=O)C1C(=O)Nc2ccccc2S1=O` (stereo not given), the TGI in experiment [1], in [2], in experiment [3], in [5], in experiment [6] and in experiment [7] was > 100 µM each time. The TGI in experiment [8] is > 100 µM.
On to `COc1cc2c(-c3nc4cc(Cl)c(F)cc4s3)cc(=O)oc2c(C)c1OC`, for which the GI50 in experiment [1] was 1.3 µM; in experiment [2] it was 1.8 µM; in experiment [3] it was 1.14 µM; in experiment [5], 1.23 µM; in experiment [6] it was 1.81 µM; in [8], 1.96 µM. The TGI in experiment [1] was 2.69 µM; in [2], 3.39 µM; in experiment [3], 3.24 µM; in experiment [5], 2.56 µM; in [6], 3.49 µM; in experiment [8], 3.47 µM.
In the case of `C=C1C(=O)O[C@@H]2C[C@]3(C)[C@@H](C[C@H]12)[C@](C)(O)CC[C@@H]3O`, the TGI in experiment [1], in experiment [2], in experiment [3], in experiment [5], in experiment [6] and in [7] was > 100 µM throughout. In experiment [8], the TGI is 76.6 µM.
Regarding `CN(C)CCC1(C2=CCCC2)CC/C(=C\c2ccc3c(c2)OCO3)C1=O` (stereo not given), the TGI was 39.5 µM in [1]; 29.2 µM in experiment [2]; 28.1 µM in [3]; 27.6 µM in experiment [5]; 27.4 µM in experiment [6]; 26.9 µM in experiment [7]. In experiment [8], this molecule had a TGI of 29.2 µM.
